Assay results: patent publication USRE38132E1, “Phenylpyrrolidines, phenylimidazolidines,3-phenyl-1,3-oxizolidines and 3-phenyl-1,3-thiazolidines and their use in the treatment of inflammatory disease” (Boehringer Ingelheim Pharmaceuticals, Inc., priority 1997, dated 2003)
Where two headings read alike, the source gives them in different places.

How the values were obtained:
[1] = biological target: T1, interaction of ICAM-1 with the Leukointegrin CD18/CD11a (LFA-1) (Homo sapiens, UniProt P05107+P20701); assay: Assay to determine inhibition of LFA-1 binding to ICAM-1 (immunopurified LFA-1 on plate-bound sICAM-1, ELISA readout)
T1 construct: endogenous in cells; sICAM-1: made in house, secreted from transfected CHO DUX cells

[2] = test system: cell bound form of LFA-1 (CD18, CD11a) with ICAM-1, SKW3 cells; assay: Inhibition of SKW3 cell binding to ICAM-1 (PMA-stimulated); format: cell-based, human; conditions: read-out: Assay to Detect SKW3 Cells Binding to ICAM IC50
Description: (§1) Assay to Determine Inhibition of SKW3 cell binding to ICAM-1 vs. Binding to Fibronectin
(§2) This assay is used to test the selective ability of a test compound to antagonize the interaction of a cell bound form of LFA-1 with ICAM-1. The assay uses a human T cell line, SKW3 cells which express CD18, CD11a and other integrins not related to CD18, CD11a and which can be “activated” by phorbol esters. Phorbol esters enhance the affinity of CD18, CD11a for ICAM-1.
(§3) This same lymphocyte line, SKW3, also adheres to fibronectin in the presence of phorbol esters. This adhesion is mediated by membrane proteins independent of the LFA-1/ICAM-1 interaction. The SKW3 cells express another integrin, VLA4, which is the receptor for fibronectin. Therefore, as a preliminary indication of the selectivity of a test compounds to interfere with Leukointegrin/CAM interactions but not other integrin-ligand binding events, a compound can be tested for its ability to antagonize cell bound fibronectin receptor in its interaction with purified fibronectin. Compounds that inhibit this fibronectin adhesion are not specific antagonists of the CD18, CD11a/ICAM-1 binding.
(§4) Description of Assay Protocol:
(§5) Ninety-six well plates are coated with either sICAM-1(40 μg/mL) or fibronectin (100 μg/mL) in Diluting buffer for 1 h at room temperature. Added to the wells are 100 μL of the appropriately diluted test compound or 100 μL of RPMI with 15% fetal bovine serum as a control. SKW3 cells, which express CD18, CD11a and VLA4 (Dustin, M.; et al., J. Exp. Med. 1987, 165, 672-692) are washed and suspended to a concentration of 10^6 cells/mL in RPMI with 15% fetal bovine serum. Immediately before adding the cells to the wells, cells are stimulated with the phorbol ester 12-myristate 13-acetate (PMA) for a final concentration of […]. 100 μL of cells are then added to the wells resulting in a final concentration of […]. The plates are incubated for 2 h at 37° C. Unbound or loosely bound cells are gently washed away with RPMI.
(§6) Data are reported as the concentration or concentration range (in μM) at which 50% of binding is inhibited.

[3] = test system: cell bound fibronectin receptor (VLA4) with fibronectin, SKW3 cells; assay: Inhibition of SKW3 cell binding to fibronectin (selectivity counter-assay); format: cell-based, human; conditions: for IC50: read-out: Assay to Detect SKW3 Cells Binding to FIBRONECTIN IC50
Description: as §1, §2, §3, §4, §5, §6

[4] = test system: LFA-1 dependent aggregation of JY cells; assay: JY cell homotypic aggregation assay (PMA-stimulated); format: cell-based, human; conditions: Homo sapiens
Description: This aggregation can be enhanced by the addition of phorbol esters. […] Thus, the extent of LFA-1-dependent binding may be determined by assessing the extent of spontaneous or phorbol ester-dependent aggregate formation.
An agent which interferes with LFA-1 -dependent aggregation can be identified through the use of an assay capable of determining whether the agent interferes with either spontaneous, or phorbol ester-dependent aggregation of Epstein-Barr virus transformed cells. It is preferable to employ cells of the JY cell line (Terhost, L; et aL, Proc. Natl. Acad. Sci. USA, 1976, 73, 910) for the homotypic aggregation assay. This assay, capable of measuring LFA-1 dependent aggregation, may be employed to identify agents which act as antagonists to the LFA-1 dependent aggregation. Such agents may act by impairing the ability of either LFA-1 or ICAM-1 to mediate aggregation. Thus, agents may be examined to directly determine if they are antagonists of LFA-1 aggregation.
as §4
JY cells are cultured in RPMI 1640 culture medium supplemented with 10% fetal calf serum and 50 μg/mL gentamycin. The cells are cultured at 37° C. in an atmosphere of 5% CO2 at a relative humidity of 95%. JY cells used in this assay are washed two times with RPMI 1640 medium containing 5 mM HEPES buffer and resuspended to a concentration of 2·10^6 cells/mL. Added to flat-bottomed, 96-well microtiter plates are 50 μL of test compound diluted in complete medium, 50 μL of complete medium with or without purified monoclonal antibodies (negative and positive controls for inhibition, respectively), 50 μL of complete medium containing 200 ng/mL of the phorbol ester phorbol myristate acetate (PMA) and 100 μL of cells at a concentration of 2·10^6 cells/mL in complete medium. This yields a final concentration of […] PMA and 2·10^5 cells/well. Cells are allowed to settle spontaneously, and the degree of aggregation is scored at various time points. […] This procedure has been described by Rothlein, R. R.; et al., J. Exp. Med. 1986, 163, 1132-1149. This paper also reported that antibody to LFA-1 is capable of inhibiting the formation of aggregates.
as §6

[5] = values marked e approximated from incomplete dose-response curve
[6] = Homo sapiens, SKW3, values marked c: no inhibition observed up to highest dose
[7] = No inh = no inhibition observed up to highest dose, exact quantification not always possible due to intrinsic toxicity
[8] = values marked c: no inhibition observed up to highest dose

T1 sequence (P20701 26-1170): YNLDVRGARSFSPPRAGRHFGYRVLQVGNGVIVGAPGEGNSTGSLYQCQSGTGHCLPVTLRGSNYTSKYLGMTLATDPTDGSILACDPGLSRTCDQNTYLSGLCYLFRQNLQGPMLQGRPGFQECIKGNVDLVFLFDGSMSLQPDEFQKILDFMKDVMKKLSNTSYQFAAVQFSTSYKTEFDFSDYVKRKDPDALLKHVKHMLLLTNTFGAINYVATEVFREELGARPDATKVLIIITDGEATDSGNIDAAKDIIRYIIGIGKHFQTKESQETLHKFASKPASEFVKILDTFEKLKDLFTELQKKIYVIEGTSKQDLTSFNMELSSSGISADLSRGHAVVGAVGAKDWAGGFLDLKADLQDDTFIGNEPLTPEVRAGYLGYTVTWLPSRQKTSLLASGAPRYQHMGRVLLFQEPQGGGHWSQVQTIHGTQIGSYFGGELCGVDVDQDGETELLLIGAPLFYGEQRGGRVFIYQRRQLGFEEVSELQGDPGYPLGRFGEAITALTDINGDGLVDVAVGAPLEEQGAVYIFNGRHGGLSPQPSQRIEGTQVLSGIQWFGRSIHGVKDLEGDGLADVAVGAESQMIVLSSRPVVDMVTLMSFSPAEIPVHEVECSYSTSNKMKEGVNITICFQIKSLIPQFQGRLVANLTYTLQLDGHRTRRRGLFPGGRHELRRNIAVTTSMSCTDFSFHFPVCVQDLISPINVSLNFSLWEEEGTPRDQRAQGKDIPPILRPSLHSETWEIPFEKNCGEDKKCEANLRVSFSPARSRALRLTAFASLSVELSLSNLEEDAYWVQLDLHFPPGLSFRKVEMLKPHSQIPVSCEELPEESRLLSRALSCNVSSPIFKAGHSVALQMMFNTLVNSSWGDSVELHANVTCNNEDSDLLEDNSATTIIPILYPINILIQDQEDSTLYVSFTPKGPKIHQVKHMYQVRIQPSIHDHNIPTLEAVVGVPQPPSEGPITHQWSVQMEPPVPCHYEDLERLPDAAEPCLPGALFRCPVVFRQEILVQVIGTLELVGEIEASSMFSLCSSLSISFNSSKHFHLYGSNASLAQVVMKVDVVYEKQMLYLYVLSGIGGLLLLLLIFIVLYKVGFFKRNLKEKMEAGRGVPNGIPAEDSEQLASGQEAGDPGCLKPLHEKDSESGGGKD
T1 sequence (P05107 23-769): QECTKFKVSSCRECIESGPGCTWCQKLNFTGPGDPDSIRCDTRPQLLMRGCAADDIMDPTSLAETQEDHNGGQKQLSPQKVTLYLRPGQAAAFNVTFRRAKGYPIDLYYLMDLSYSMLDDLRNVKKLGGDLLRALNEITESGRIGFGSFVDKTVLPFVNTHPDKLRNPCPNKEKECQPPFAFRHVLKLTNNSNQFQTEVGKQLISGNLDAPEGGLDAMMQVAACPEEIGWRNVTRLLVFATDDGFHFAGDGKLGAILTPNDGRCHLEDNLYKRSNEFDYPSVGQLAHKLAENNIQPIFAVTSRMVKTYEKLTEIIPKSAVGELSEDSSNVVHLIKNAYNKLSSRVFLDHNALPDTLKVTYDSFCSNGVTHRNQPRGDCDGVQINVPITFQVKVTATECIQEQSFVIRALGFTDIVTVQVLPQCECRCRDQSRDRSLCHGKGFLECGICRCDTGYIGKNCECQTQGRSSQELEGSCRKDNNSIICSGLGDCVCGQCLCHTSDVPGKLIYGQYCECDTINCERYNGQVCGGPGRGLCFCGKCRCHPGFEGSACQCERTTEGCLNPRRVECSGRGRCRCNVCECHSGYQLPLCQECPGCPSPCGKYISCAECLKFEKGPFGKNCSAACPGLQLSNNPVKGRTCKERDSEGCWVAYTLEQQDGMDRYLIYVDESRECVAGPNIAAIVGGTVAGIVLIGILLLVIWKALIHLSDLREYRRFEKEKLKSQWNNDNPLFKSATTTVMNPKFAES

| SMILES | Kd [1, 5] [nM] | IC50 [2, 6] [nM] | IC50 [3, 6] [nM] | Cellular Toxicity Assay MTT LD50 (SKW3 cells) [µM] | Assay to Detect SKW3 Cells Binding to FIBRONECTIN IC50 [3, 8] | other results |
| --- | --- | --- | --- | --- | --- | --- |
| C[C@H](c1ccccc1)[C@H]1NC(=O)N(c2cc(Cl)cc(Cl)c2)C1=O [Example 21] | 690 | < 16000 | 125000 to 250000 | 125 to 250 |  |  |
| O=C1N[C@@H](Cc2ccccc2)C(=O)N1c1cc(Cl)cc(Cl)c1 [Example 14] | 12700 | 63000 to 125000 | > 125000 | 125 to 250 |  |  |
| C[C@H](c1ccccc1)[C@]1(C)C(=O)N(c2cc(Cl)cc(Cl)c2)C(=O)N1C [Example 269] |  |  |  | 250 to 500 |  | Kd [1]: 290 nM; IC50 ([2]; Homo sapiens, SKW3): 25000 nM; Assay to Detect SKW3 Cells Binding to FIBRONECTIN IC50 [3, 7]: No inh^c |
| O=C1NC(Cc2ccc3ccccc3c2)C(=O)N1c1cc(Cl)cc(Cl)c1 (centres unmarked) [Example 17] | 3010 | > 63000 |  | 125 | No inh^c |  |
| C[C@@]1(Cc2ccc(Br)cc2)C(=O)N(c2cc(Cl)cc(Cl)c2)C(=O)N1CCCCC[N+](C)(C)C [Example 255] |  |  |  | 100 to 200 |  | Kd [1]: 140 nM; IC50 ([2]; Homo sapiens, SKW3): 1000 nM; IC50 [4]: 200 nM |
| O=C1NC(Cc2ccc([N+](=O)[O-])cc2)C(=O)N1c1cc(Cl)cc(Cl)c1 (centres unmarked) [Example 24] | 850 |  |  | >400 | No inh^c | IC50 [2, 8]: > 60000 nM |
| C[C@@]1(Cc2ccc(Br)cc2)C(=O)N(c2cc(Cl)cc(Cl)c2)C(=O)N1CCCCN [Example 241] |  |  |  | 9 to 18 |  | Kd [1]: 100 nM; IC50 ([2]; Homo sapiens, SKW3): 800 to 1600 nM; IC50 ([3]; Homo sapiens, SKW3, No inh = no inhibition observed up to highest dose, exact quantification not always possible due to intrinsic toxicity): 13000 nM |
| CN1C(=O)N(c2cc(C(F)(F)F)cc(C(F)(F)F)c2)C(=O)C1(C)Cc1ccccc1 (centres unmarked) [Example 88] | 410 |  |  | 250 to 500 |  | IC50 [2, 8]: 19000 to 38000 nM; IC50 [3, 8]: > 75000 nM |
| C[C@@H](c1ccccc1)[C@H]1NC(=O)N(c2cc(Cl)cc(Cl)c2)C1=O [Example 22] | 400 | < 16000 |  | 125 to 250 | No inh^c |  |
| O=C1NC(Cc2ccccc2)C(=O)N1c1cc(Cl)cc(Cl)c1 (centres unmarked) [Example 20] | 1760 | 16000 | 63000 to 125000 | 125 to 250 |  |  |
| CN1C(=O)N(c2cc(Cl)cc(Cl)c2)C(=O)C1Cc1ccccc1 (centres unmarked) [Example 82] | 2100 | 63000 to 125000 | > 250000 | 250 to 500 |  |  |
| C[C@@]1(Cc2ccc(Br)cc2)C(=O)N(c2cc(Cl)cc(Cl)c2)C(=O)N1CCCC[N+](C)(C)C [Example 253] |  |  |  | 100 to 200 |  | Kd [1]: 50 nM; IC50 ([2]; Homo sapiens, SKW3): 1000 to 2000 nM; IC50 [4]: 200 nM |
| CCN1C(=O)N(c2cc(Cl)cc(Cl)c2)C(=O)C1(C)Cc1ccccc1 (centres unmarked) [Example 89] | 290 | 50000 |  | 500 | No inh^c |  |
| CN1C(=O)N(c2cc(Cl)cc(Cl)c2)C(=O)[C@@]1(C)Cc1ccc(-c2ccncc2)cc1 [Example 189] | 190 | 600 to 1200 |  | 63 | No inh^c |  |
| C[C@H](c1ccccc1)[C@@H]1C(=O)N(c2cc(Cl)cc(Cl)c2)C(=O)N1C [Example 85] | 720 | 19000 to 38000 | > 75000 | >500 |  |  |
| CC(=O)N1C(=O)N(c2cc(Cl)cc(Cl)c2)C(=O)C1(C)Cc1ccccc1 (centres unmarked) [Example 96] | 460 | 50000 |  | 100 to 200 | No inh^c |  |
| C[C@@]1(Cc2ccc(Br)cc2)C(=O)N(c2cc(Cl)cc(Cl)c2)C(=O)N1CCC[N+](C)(C)C [Example 254] |  |  |  | 100 to 200 |  | Kd [1]: 80 nM; IC50 ([2]; Homo sapiens, SKW3): 1000 to 2000 nM; IC50 [4]: 400 nM |
| C[C@@]1(Cc2ccc([N+](=O)[O-])cc2)C(=O)N(c2cc(Cl)cc(Cl)c2)C(=O)N1S(C)(=O)=O [Example 136] | 190 | 600 to 1000 |  | 150 to 300 | No inh^c |  |
| C[C@@H](c1ccccc1)[C@@H]1C(=O)N(c2cc(Cl)cc(Cl)c2)C(=O)N1C [Example 86] | 530 | 19000 to 38000 | > 75000 | >500 |  |  |
| CCCN1C(=O)N(c2cc(Cl)cc(Cl)c2)C(=O)C1(C)Cc1ccccc1 (centres unmarked) [Example 90] | 730 | 50000 to 100000 |  | >500 | No inh^c |  |
| CC1(Cc2ccccc2)NC(=O)N(c2cc(C(F)(F)F)cc(C(F)(F)F)c2)C1=O (centres unmarked) [Example 16] | 850 | 19000 to 38000 | > 75000 | 63 to 125 |  |  |
| C[C@@]1(Cc2ccc(Br)cc2)C(=O)N(c2cc(Cl)cc(Cl)c2)C(=O)N1CCCCCS(=O)(=O)O [Example 251] |  |  |  | 100 to 200 |  | Kd [1]: 60 nM; IC50 ([2]; Homo sapiens, SKW3): < 500 nM; Assay to Detect SKW3 Cells Binding to FIBRONECTIN IC50 [3, 7]: No inh^c |
| O=C1NC(Cc2ccc([N+](=O)[O-])cc2)C(=O)N1c1cc(Cl)cc(Cl)c1 (centres unmarked) [Example 7] | 1330 | 50000 to 100000 |  | 250 to 500 | No inh^c |  |
| O=C1CC(Cc2ccccc2)C(=O)N1c1cc(Cl)cc(Cl)c1 (centres unmarked) [Example 76] | 2340 | 150000 to 300000 | > 300000 | >500 |  |  |
| C[C@@]1(Cc2ccc(Br)cc2)C(=O)N(c2cc(Cl)cc(Cl)c2)C(=O)N1C(=O)CO [Example 231] |  |  |  | 40 to 80 |  | Kd [1]: 270 nM; IC50 ([2]; Homo sapiens, SKW3): 2000 to 5000 nM; Assay to Detect SKW3 Cells Binding to FIBRONECTIN IC50 [3, 7]: No inh^c |
| C[C@@]1(Cc2ccccc2)NC(=O)N(c2cc(Cl)cc(Cl)c2)C1=O [Example 2] | 14400 | > 100000 | > 100000 | 125 to 250 |  |  |
